Strand notation (5' to 3'): a small letter for the sugar, then the base; units joined by * are phosphorothioate-linked, units joined directly phosphodiester-linked; [ ] holds rarer units or linkages, { } end groups; capitals alone tell only the bases. k = constrained ethyl (cEt); [5mC] = 5-methylcytosine; d = 2'-deoxy (DNA)
System: Yap1 mRNA
Assay: Antisense inhibition of human Yap1 in A-431 cells by cEt gapmers, single dose (Example 4, RTS4814)
Format: cell-based
Conditions: Table 14; A-431 cells, 5,000 cells per well, free uptake, 2,000 nM, approximately 48 hours; RTS4814; normalized to RIBOGREEN; Yap1 mRNA relative to untreated control; * = targets amplicon region of primer probe set
In short: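 Values are % UTC: Yap1 mRNA by quantitative RT-PCR, normalized to RIBOGREEN total RNA. Cells were exposed ~48 h to 2,000 nM oligonucleotide without transfection. Oligonucleotides were 16-nucleoside gapmers with three cEt nucleosides per wing, ten-deoxy gap, P=S linkages throughout.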

Compared with “1076544 (antisense kG*kA*k[5mC]*d[5mC]*dA*dA*d[5mC]*d[5mC]*dT*d[5mC]*d[5mC]*d[5mC]*d[5mC]*kT*kT*kG) [Compound 1076544]”, “1075680 (kA*kT*kT*dA*dT*dT*dA*d[5mC]*d[5mC]*d[5mC]*d[5mC]*dT*dT*k[5mC]*kT*kA; antisense) [Compound 1075680]” is lower in “YAP1 (% UTC)” value: 89 % UTC for the first, 73 % UTC for the second.

Going from “1074976 (antisense kT*kT*k[5mC]*dT*dA*dT*dT*dG*dG*dA*dA*dG*dA*k[5mC]*k[5mC]*kA) [Compound 1074976]” to “1075328 (k[5mC]*kT*k[5mC]*dG*d[5mC]*dA*dA*dA*dG*d[5mC]*d[5mC]*dT*d[5mC]*kT*kT*k[5mC]; antisense) [Compound 1075328]”, the “YAP1 (% UTC)” value falls from 35 % UTC to 21 % UTC.

Compared with “1075712 (kG*kA*k[5mC]*dG*d[5mC]*dG*dA*dA*dA*dT*dA*d[5mC]*dT*kT*kA*k[5mC]; antisense) [Compound 1075712]”, “1075840 (k[5mC]*k[5mC]*kT*dA*dA*dA*dA*dT*dA*dG*dG*dA*dA*kT*kG*k[5mC]; antisense) [Compound 1075840]” is higher in “YAP1 (% UTC)” value: 7 % UTC for the first, 89 % UTC for the second.

First: 1074240 (antisense k[5mC]*kT*kG*dG*d[5mC]*dA*dG*dA*dG*dG*dT*dA*d[5mC]*kA*kT*k[5mC]) [Compound 1074240]
Second: 1075264 (antisense kG*kA*kA*dT*dA*dA*dT*dA*dT*dG*d[5mC]*dA*dG*kA*kA*k[5mC]) [Compound 1075264]
The “YAP1 (% UTC)” value of the first is lower: 29 % UTC for the first, 53 % UTC for the second.

First: 1074528 (k[5mC]*kT*kG*d[5mC]*d[5mC]*d[5mC]*d[5mC]*dA*dA*d[5mC]*d[5mC]*dA*dG*kA*kT*kT; antisense) [Compound 1074528]
Second: 1076096 (kA*kA*kT*dA*dA*dT*dA*dA*dA*d[5mC]*dG*dA*dT*kT*k[5mC]*kT; antisense) [Compound 1076096]
The “YAP1 (% UTC)” value of the first is lower: 25 % UTC for the first, 71 % UTC for the second.

Compared with “1075072 (antisense kT*k[5mC]*k[5mC]*dG*dG*dG*dT*dA*dA*dA*dT*dA*dT*k[5mC]*kT*k[5mC]) [Compound 1075072]”, “1076320 (k[5mC]*kA*kT*dT*dA*dA*d[5mC]*d[5mC]*dT*d[5mC]*dA*d[5mC]*d[5mC]*k[5mC]*kA*kT; antisense) [Compound 1076320]” is higher in “YAP1 (% UTC)” value: 37 % UTC for the first, 52 % UTC for the second.

Same assay, conditions: Table 15; A-431 cells, 5,000 cells per well, free uptake, 2,000 nM, approximately 48 hours; RTS4814; normalized to RIBOGREEN; Yap1 mRNA relative to untreated control; * = targets amplicon region of primer probe set

First: 1076193 (kT*kT*kA*dA*dT*dA*d[5mC]*dA*d[5mC]*dA*dG*dG*dT*kT*k[5mC]*k[5mC]; antisense) [Compound 1076193]
Second: 1076321 (k[5mC]*kA*kA*dT*dA*dT*d[5mC]*dA*d[5mC]*dT*dT*dG*dG*kG*k[5mC]*k[5mC]; antisense) [Compound 1076321]
The “YAP1 (% UTC)” value of the first is lower: 29 % UTC for the first, 63 % UTC for the second.

Going from “1074401 (antisense kT*k[5mC]*k[5mC]*dG*dG*dT*dG*d[5mC]*dA*dT*dG*dT*dG*kT*k[5mC]*kT) [Compound 1074401]” to “1074657 (antisense kT*k[5mC]*k[5mC]*d[5mC]*d[5mC]*d[5mC]*d[5mC]*dA*dG*dA*d[5mC]*dT*dT*kA*kA*kT) [Compound 1074657]”, the “YAP1 (% UTC)” value rises from 18 % UTC to 59 % UTC.

Going from “1075073 (antisense k[5mC]*kA*kT*dA*dA*dA*dA*dG*dT*dT*d[5mC]*d[5mC]*d[5mC]*k[5mC]*kA*kG) [Compound 1075073]” to “1074977 (antisense k[5mC]*kT*kT*dG*dT*dT*d[5mC]*dT*dA*dT*dT*dG*dG*kA*kA*kG) [Compound 1074977]”, the “YAP1 (% UTC)” value rises from 51 % UTC to 94 % UTC.

Compared with “1074337 (antisense kG*kA*kG*dT*d[5mC]*d[5mC]*d[5mC]*dA*d[5mC]*d[5mC]*dA*dT*d[5mC]*k[5mC]*kT*kG) [Compound 1074337]”, “1076097 (k[5mC]*kA*kA*dT*dA*dA*dT*dA*dA*dA*d[5mC]*dG*dA*kT*kT*k[5mC]; antisense) [Compound 1076097]” is higher in “YAP1 (% UTC)” value: 10 % UTC for the first, 70 % UTC for the second.

Compared with “1075265 (antisense kT*k[5mC]*kT*dG*dA*dA*dT*dA*dA*dT*dA*dT*dG*k[5mC]*kA*kG) [Compound 1075265]”, “1075489 (antisense kG*kA*kG*d[5mC]*dA*dA*d[5mC]*dA*dA*d[5mC]*dT*dA*dT*kG*kA*kG) [Compound 1075489]” is higher in “YAP1 (% UTC)” value: 44 % UTC for the first, 51 % UTC for the second.

Compared with “1074753 (kT*kA*k[5mC]*dA*dT*dT*dA*dG*dG*dA*dA*d[5mC]*dA*kA*kG*kG; antisense) [Compound 1074753]”, “1076001 (kA*k[5mC]*kT*d[5mC]*dA*dA*dG*dG*dA*dA*d[5mC]*d[5mC]*dA*kT*kT*kT; antisense) [Compound 1076001]” is higher in “YAP1 (% UTC)” value: 4 % UTC for the first, 24 % UTC for the second.

Same assay, conditions: Table 16; A-431 cells, 5,000 cells per well, free uptake, 2,000 nM, approximately 48 hours; RTS4814; normalized to RIBOGREEN; Yap1 mRNA relative to untreated control cells

First: 1075778 (k[5mC]*kA*kT*dT*dT*dA*dT*dA*d[5mC]*d[5mC]*dA*dG*dG*k[5mC]*kA*k[5mC]; antisense) [Compound 1075778]
Second: 1076130 (k[5mC]*kT*kG*dG*dA*dA*dT*dA*dG*dT*dG*dG*dG*kT*kG*k[5mC]; antisense) [Compound 1076130]
The “YAP1 (% UTC)” value of the first is lower: 3 % UTC for the first, 34 % UTC for the second.

Compared with “1075682 (kG*kA*kT*dA*dA*dT*dT*dA*dT*dT*dA*d[5mC]*d[5mC]*k[5mC]*k[5mC]*kT; antisense) [Compound 1075682]”, “1074658 (antisense kG*kG*k[5mC]*d[5mC]*dA*dT*dT*dT*d[5mC]*d[5mC]*d[5mC]*d[5mC]*d[5mC]*k[5mC]*kA*kG) [Compound 1074658]” is higher in “YAP1 (% UTC)” value: 35 % UTC for the first, 89 % UTC for the second.

Same assay, conditions: Table 17; A-431 cells, 5,000 cells per well, free uptake, 2,000 nM, approximately 48 hours; RTS4814; normalized to RIBOGREEN; Yap1 mRNA relative to untreated control cells

Going from “1074659 (antisense k[5mC]*kT*kA*dA*dA*dA*d[5mC]*dT*d[5mC]*d[5mC]*dA*dT*d[5mC]*kT*kG*k[5mC]) [Compound 1074659]” to “1075395 (kA*kT*kG*dA*dA*dT*dA*dA*dG*dT*dA*dT*dG*k[5mC]*k[5mC]*kA; antisense) [Compound 1075395]”, the “YAP1 (% UTC)” value falls from 12 % UTC to 4 % UTC.

First: 1075331 (kG*kA*kT*dA*dA*dA*d[5mC]*dA*d[5mC]*dT*dG*d[5mC]*dA*kG*kA*kG; antisense) [Compound 1075331]
Second: 1075139 (antisense k[5mC]*k[5mC]*k[5mC]*dA*dA*dA*dT*dA*dA*dT*dA*dG*dA*kT*kA*k[5mC]) [Compound 1075139]
The “YAP1 (% UTC)” value of the first is lower: 33 % UTC for the first, 65 % UTC for the second.

Compared with “1075427 (antisense kT*kA*kT*dA*dA*dG*dG*d[5mC]*dA*dT*d[5mC]*dT*dT*kG*kG*kA) [Compound 1075427]”, “1074531 (k[5mC]*kA*k[5mC]*dT*dA*dA*dA*d[5mC]*dT*dA*d[5mC]*dT*dT*k[5mC]*kA*kA; antisense) [Compound 1074531]” is higher in “YAP1 (% UTC)” value: 60 % UTC for the first, 73 % UTC for the second.

Same assay, conditions: Yap1 mRNA remaining as percent of untreated control; 3-10-3 cEt gapmers; A-431 cells; Table 36

First: 1075382 (antisense kA*kT*kT*dA*dT*dT*dA*d[5mC]*d[5mC]*d[5mC]*dT*dA*d[5mC]*kT*k[5mC]*kA) [compound 1075382]
Second: 1074902 (antisense k[5mC]*kT*kA*dT*dT*dA*dA*d[5mC]*dT*dT*dT*dT*dG*kG*kG*k[5mC]) [compound 1074902]
The “YAP1 (% UTC)” value of the first is lower: 33 % UTC for the first, 54 % UTC for the second.

Going from “1075862 (antisense k[5mC]*kT*kA*dA*dT*dA*dA*d[5mC]*dT*dT*dG*dT*d[5mC]*kT*kA*k[5mC]) [compound 1075862]” to “1075478 (k[5mC]*kA*kT*dT*dT*dT*dG*dA*dA*d[5mC]*d[5mC]*d[5mC]*dT*kT*kT*kA; antisense) [compound 1075478]”, the “YAP1 (% UTC)” value falls from 67 % UTC to 20 % UTC.

Compared with “1074198 (antisense kT*kT*kG*d[5mC]*d[5mC]*d[5mC]*dG*dG*dG*dT*d[5mC]*d[5mC]*dG*kG*kA*k[5mC]) [compound 1074198]”, “1075414 (antisense k[5mC]*kA*kT*dA*d[5mC]*dT*dA*dA*dT*d[5mC]*d[5mC]*d[5mC]*dT*k[5mC]*kT*kT) [compound 1075414]” is lower in “YAP1 (% UTC)” value: 112 % UTC for the first, 41 % UTC for the second.

Same assay, conditions: Yap1 mRNA remaining as percent of untreated control; 3-10-3 cEt gapmers; A-431 cells; Table 37

Compared with “1074327 (antisense kT*kA*k[5mC]*dG*d[5mC]*dA*dG*dG*dG*d[5mC]*dT*dA*dA*k[5mC]*kT*k[5mC]) [compound 1074327]”, “1075639 (antisense kA*kA*kT*dT*dA*dA*d[5mC]*d[5mC]*dA*dG*dA*dA*dG*k[5mC]*k[5mC]*kT) [compound 1075639]” is higher in “YAP1 (% UTC)” value: 39 % UTC for the first, 101 % UTC for the second.

Going from “1075415 (antisense k[5mC]*kA*kT*dT*dA*dA*dA*dT*dG*dA*d[5mC]*dA*dG*k[5mC]*k[5mC]*kT) [compound 1075415]” to “1075927 (antisense kG*k[5mC]*kT*dT*dA*dA*dA*dA*dT*d[5mC]*dA*dT*dG*kT*kA*kG) [compound 1075927]”, the “YAP1 (% UTC)” value falls from 52 % UTC to 32 % UTC.

Compared with “1076215 (kT*kT*kA*dT*dA*dA*d[5mC]*dA*dG*dA*d[5mC]*dT*dG*kG*k[5mC]*kT; antisense) [compound 1076215]”, “1075159 (k[5mC]*kA*kA*dA*dA*dA*dA*dT*d[5mC]*dA*d[5mC]*dG*dG*k[5mC]*kA*kA; antisense) [compound 1075159]” is higher in “YAP1 (% UTC)” value: 47 % UTC for the first, 63 % UTC for the second.

With “1076567 (kG*kA*kT*dT*dA*d[5mC]*dA*dG*dT*dG*dA*d[5mC]*dA*kT*kT*k[5mC]; antisense) [compound 1076567]” the “YAP1 (% UTC)” value was 10 % UTC.

Same assay, conditions: table after Table 37, headed TABLE 32 (gapmers targeting SEQ ID NO.: 3); A-431 cells, free uptake, 2,000 nM, approximately 48 hours, RTS4814

For “1074881 (k[5mC]*kT*kA*dA*d[5mC]*dT*d[5mC]*d[5mC]*dT*dG*d[5mC]*d[5mC]*dG*kA*kA*kG; antisense) [compound 1074881]”, the “YAP1 (% UTC)” value was 76 % UTC.

From patent publication US11214803B2, “Modulators of YAP1 expression” (Ionis Pharmaceuticals, Inc., priority 2019, dated 2022)
